Read-outs that look alike come from different tables or passages of the source.
Columns and labels:
[1] = tested on: SW48 (human colon cancer cells); assay: inhibition of SW48 cell proliferation (CellTiter Glo); format: cell-based; settings: 72 hrs, read-out: SW-48 proliferation IC50
Outline: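 Cells plated at 5,000/well and grown 24 hrs were exposed to conjugates for 72 hrs at 37° C, 5% CO2, in a ten-point three-fold series starting at 10 μM; vehicle was 0.01% DMSO. Proliferation was read by CellTiter Glo. % inhibition was taken relative to vehicle, with IC50 from four-parameter nonlinear regression.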

human NTSR1 = target: T1, human NTSR1 (Homo sapiens, UniProt P30989); assay: radioligand-receptor binding assay, [125I] labeled neurotensin (Eurofins Panlabs)
T1 construct: host or cells: HEK-293 cells (membrane preparations)
Outline: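 Membranes from HEK-293 cells expressing human NTSR1 incubated 45 min with 0.02 nM [125I]neurotensin and conjugate in 6-point 3-fold dilutions from 100 or 10 nM; bound radioactivity counted after filtration. IC50 by nonlinear regression, converted to Ki via Cheng–Prusoff using historical ligand Kd.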

[2] = tested on: HT-29 cells (human colon cancer cells); assay: inhibition of HT29 cell proliferation (Cell Titer Glo 2.0); format: cell-based; settings: NTSR1 scrambled compound; 72 h
Method: Conjugates were assessed in an in vitro assay evaluating inhibition of cell proliferation. HT-29 cells (human colon cancer cells) were seeded in white walled 96-well plates at 10,000 cells per well in 100 μl McCoy's 5a (Invitrogen) media supplemented with 10% Fetal Bovine Serum (Invitrogen). After allowing cells to settle overnight, 5 μl of 20× test article was added to each well in replicate and incubated for 72 h. 72 hours after addition of compound, plates were removed from incubator and allowed to cool to room temperature. 50 μl of Cell Titer Glo 2.0 (Promega) was added to each well, incubated for 15 minutes, and plates were read on Glomax luminometer (Promega) using the Cell Titer Glo protocol. Raw luminometer readings for each plate were transformed by dividing the experimental well into the mean of untreated control wells. This is reported as ratio of untreated, and is plotted with Prism 6 software (Graph Pad) and fitted with a 4-parameter, variable slope curve.
Conjugates are assessed for receptor-dependent cytotoxicity by the difference between an NTSR1-targeting conjugate, and the corresponding conjugate with the same linker moiety and active agent where the NTSR1-targeting domain has been scrambled.

[3] = [125I] neurotensin 0.02 nM, membranes from NTSR1 expressing HEK-293 cells, 45 minute incubation, Cheng and Prusoff, read-out: NTSR1 binding Ki

T1 sequence (P30989 whole entry): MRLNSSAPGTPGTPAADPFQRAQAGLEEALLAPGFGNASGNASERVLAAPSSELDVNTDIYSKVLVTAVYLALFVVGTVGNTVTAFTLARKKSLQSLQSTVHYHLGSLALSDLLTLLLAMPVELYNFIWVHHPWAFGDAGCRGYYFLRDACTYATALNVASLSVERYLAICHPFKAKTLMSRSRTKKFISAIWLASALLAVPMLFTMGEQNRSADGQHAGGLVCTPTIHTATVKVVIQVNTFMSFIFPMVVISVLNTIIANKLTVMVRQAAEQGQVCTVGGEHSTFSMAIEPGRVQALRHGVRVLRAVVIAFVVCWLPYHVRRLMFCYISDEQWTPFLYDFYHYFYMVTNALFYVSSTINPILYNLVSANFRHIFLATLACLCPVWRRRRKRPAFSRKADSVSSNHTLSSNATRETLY

Compound	IC50 ([1]; NTSR1 targeted compound)	Ki (human NTSR1; [3])	IC50 ([1]; NTSR1 scrambled compound)	IC50 [2]	Ki (human NTSR1)
CCc1c2c(nc3ccc(O)cc13)-c1cc3c(c(=O)n1C2)COC(=O)[C@@]3(CC)OC(=O)OCc1ccc(NC(=O)[C@H](CCCNC(N)=O)NC(=O)[C@@H](NC(=O)CCCCCN2C(=O)CC(SC(C)(C)[C@H](NC(C)=O)C(=O)N3CCC[C@H]3C(=O)N[C@@H](CCCNC(=N)N)C(=O)N[C@@H](CCCNC(=N)N)C(=O)N3CCC[C@H]3C(=O)N[C@@H](Cc3ccc(O)cc3)C(=O)N[C@H](C(=O)N[C@@H](CC(C)C)C(=O)O)C(C)(C)C)C2=O)C(C)C)cc1 (some centres unmarked) [Compound 64]	66 nM	2.05 nM			
COc1cc2cc(c1Cl)N(C)C(=O)C[C@H](OC(=O)[C@H](C)N(C)C(=O)CCSSC(C)(C)[C@H](NC(C)=O)C(=O)N1CCC[C@H]1C(=O)N[C@@H](CC(C)C)C(=O)N1CCC[C@H]1C(=O)N[C@@H](CCCNC(=N)N)C(=O)N[C@H](C(=O)N[C@@H](CCCNC(=N)N)C(=O)N[C@@H](Cc1ccc(O)cc1)C(=O)O)C(C)(C)C)[C@]1(C)O[C@H]1[C@H](C)[C@@H]1C[C@@](O)(NC(=O)O1)[C@H](OC)/C=C/C=C(\C)C2 [Compound 77]		> 100 nM	16.5 nM		
COc1cc2cc(c1Cl)N(C)C(=O)C[C@H](OC(=O)[C@H](C)N(C)C(=O)CCSSCCC(=O)NCCCC[C@H](NC(C)=O)C(=O)N1CCC[C@H]1C(=O)N[C@@H](CC(C)C)C(=O)N1CCC[C@H]1C(=O)N(C)[C@@H](CCCNC(=N)N)C(=O)N[C@H](C(=O)N[C@@H](CCCNC(=N)N)C(=O)N[C@@H](Cc1ccc(O)cc1)C(=O)O)C(C)(C)C)[C@]1(C)O[C@H]1[C@H](C)[C@@H]1C[C@@](O)(NC(=O)O1)[C@H](OC)/C=C/C=C(\C)C2 [Compound 78]			3 nM	13.3 nM	
COc1cc2cc(c1Cl)N(C)C(=O)C[C@H](OC(=O)[C@H](C)N(C)C(=O)CCSC1CC(=O)N(CCCCCC(=O)NCCCC[C@H](NC(C)=O)C(=O)N3CCC[C@H]3C(=O)N[C@@H](CC(C)C)C(=O)N3CCC[C@H]3C(=O)N(C)[C@@H](CCCNC(=N)N)C(=O)N[C@H](C(=O)N[C@@H](CCCNC(=N)N)C(=O)N[C@@H](Cc3ccc(O)cc3)C(=O)O)C(C)(C)C)C1=O)[C@]1(C)O[C@H]1[C@H](C)[C@@H]1C[C@@](O)(NC(=O)O1)[C@H](OC)/C=C/C=C(\C)C2 (some centres unmarked) [Compound 80]			81 nM	116 nM	
COc1cc2cc(c1Cl)N(C)C(=O)C[C@H](OC(=O)[C@H](C)N(C)C(=O)CCSC1CC(=O)N(CCCNC(=O)CNC(=O)[C@H](CC(C)C)NC(=O)[C@H](Cc3ccccc3)NC(=O)CNC(=O)CCCCCN3C(=O)CC(SC(C)(C)[C@H](NC(C)=O)C(=O)N4CCC[C@H]4C(=O)N[C@@H](CC(C)C)C(=O)N4CCC[C@H]4C(=O)N[C@@H](CCCNC(=N)N)C(=O)N[C@H](C(=O)N[C@@H](CCCNC(=N)N)C(=O)N[C@@H](Cc4ccc(O)cc4)C(=O)O)C(C)(C)C)C3=O)C1=O)[C@]1(C)O[C@H]1[C@H](C)[C@@H]1C[C@@](O)(NC(=O)O1)[C@H](OC)/C=C/C=C(\C)C2 (some centres unmarked) [Compound 81]			70 nM		> 100 nM
CC[C@H](C)[C@@H]([C@@H](CC(=O)N1CCC[C@H]1[C@H](OC)[C@@H](C)C(=O)N[C@H](C)[C@@H](O)c1ccccc1)OC)N(C)C(=O)[C@@H](NC(=O)[C@H](C(C)C)N(C)C(=O)OCc1ccc(NC(=O)[C@H](CCCNC(N)=O)NC(=O)[C@@H](NC(=O)CCCCCN2C(=O)CC(SC(C)(C)[C@H](NC(C)=O)C(=O)N3CCC[C@H]3C(=O)N[C@@H](CC(C)C)C(=O)N3CCC[C@H]3C(=O)N[C@@H](CCCNC(=N)N)C(=O)N[C@H](C(=O)N[C@@H](CCCNC(=N)N)C(=O)N[C@@H](Cc3ccc(O)cc3)C(=O)O)C(C)(C)C)C2=O)C(C)C)cc1)C(C)C (some centres unmarked) [Compound 90]			60 nM	97 nM	
CC[C@H](C)[C@@H]([C@@H](CC(=O)N1CCC[C@H]1[C@H](OC)[C@@H](C)C(=O)N[C@H](C)[C@@H](O)c1ccccc1)OC)N(C)C(=O)[C@@H](NC(=O)[C@H](C(C)C)N(C)C(=O)OCCSSC(C)(C)[C@H](NC(C)=O)C(=O)N1CCC[C@H]1C(=O)N[C@@H](CC(C)C)C(=O)N1CCC[C@H]1C(=O)N[C@@H](CCCNC(=N)N)C(=O)N[C@H](C(=O)N[C@@H](CCCNC(=N)N)C(=O)N[C@@H](Cc1ccc(O)cc1)C(=O)O)C(C)(C)C)C(C)C [Compound 92]			18 nM	2.2 nM	
